From paper PMC8632988, “Inhibition of SYK and cSrc kinases can protect bone and cartilage in preclinical models of osteoarthritis and rheumatoid arthritis” (Scientific Reports, 2021)

Tests used:
Experiment in all cases: Kinase selectivity profile assay
Type in all cases: biochemical
CAMK2a = target: T1, CAMK2a (Homo sapiens, UniProt Q9UQM7); conditions: 500 nM; relative to DMSO; read-out: Residual enzymatic activity
T1 construct: purchased Reaction Biology Corporation
Description: (§1) The activity of MT-SYK-03 against cSrc kinase and selectivity profile towards other 341 kinases was determined at Reaction Biology Corporation (Malvern, PA, USA) using the standard kinase assay protocol. […]; unbound phosphate was removed by extensive washing of filters in phosphoric acid. Kinase activity data was expressed as the percent remaining kinase activity in test samples compared to vehicle (dimethyl sulfoxide) reactions based on the radioactivity of reaction products (see Table S2). Experiment was replicated twice.

IR = target: T2, IR (Homo sapiens, UniProt P06213); conditions: 500 nM; relative to DMSO; read-out: Residual enzymatic activity
T2 construct: purchased Reaction Biology Corporation
Description: as §1

AXL = target: T3, AXL (Homo sapiens, UniProt P30530); conditions: 500 nM; relative to DMSO; read-out: Residual enzymatic activity
T3 construct: purchased Reaction Biology Corporation
Description: as §1

CLK4 = target: T4, CLK4 (Homo sapiens, UniProt Q9HAZ1); conditions: 500 nM; relative to DMSO; read-out: Residual enzymatic activity
T4 construct: purchased Reaction Biology Corporation
Description: as §1

FGFR4 = target: T5, FGFR4 (Homo sapiens, UniProt P22455); conditions: 500 nM, relative to DMSO
T5 construct: purchased Reaction Biology Corporation
Description: as §1

CDK16/cyclin Y = target: T6, CDK16/cyclin Y (Homo sapiens, UniProt Q00536); conditions: 500 nM; relative to DMSO; read-out: Residual enzymatic activity
T6 construct: purchased Reaction Biology Corporation
Description: as §1

AKT2 = target: T7, AKT2 (Homo sapiens, UniProt P31751); conditions: 500 nM; relative to DMSO; read-out: Residual enzymatic activity
T7 construct: purchased Reaction Biology Corporation
Description: as §1

NLK = target: T8, NLK (Homo sapiens, UniProt Q9UBE8); conditions: 500 nM; relative to DMSO; read-out: Residual enzymatic activity
T8 construct: purchased Reaction Biology Corporation
Description: as §1

BLK = target: T9, BLK (Homo sapiens, UniProt P51451); conditions: for remaining activity at 0.5 µM: 500 nM, relative to DMSO, read-out: Residual enzymatic activity
T9 construct: purchased Reaction Biology Corporation (assay service)
Description: as §1

RON/MST1R = target: T10, RON/MST1R (Homo sapiens, UniProt Q04912); conditions: 500 nM; relative to DMSO; read-out: Residual enzymatic activity
T10 construct: purchased Reaction Biology Corporation
Description: as §1

SGK1 = target: T11, SGK1 (Homo sapiens, UniProt O00141); conditions: 500 nM; relative to DMSO; read-out: Residual enzymatic activity
T11 construct: purchased Reaction Biology Corporation
Description: as §1

STK32B/YANK2 = target: T12, STK32B/YANK2 (Homo sapiens, UniProt Q9NY57); conditions: 500 nM; relative to DMSO; read-out: Residual enzymatic activity
T12 construct: purchased Reaction Biology Corporation
Description: as §1

PAK6 = target: T13, PAK6 (Homo sapiens, UniProt Q9NQU5); conditions: 500 nM; relative to DMSO; read-out: Residual enzymatic activity
T13 construct: purchased Reaction Biology Corporation
Description: as §1

EPHA1 = target: T14, EPHA1 (Homo sapiens, UniProt P21709); conditions: for remaining activity at 0.5 µM: 500 nM, relative to DMSO, read-out: Residual enzymatic activity
T14 construct: purchased Reaction Biology Corporation (assay service)
T14 sequence (P21709 26-976): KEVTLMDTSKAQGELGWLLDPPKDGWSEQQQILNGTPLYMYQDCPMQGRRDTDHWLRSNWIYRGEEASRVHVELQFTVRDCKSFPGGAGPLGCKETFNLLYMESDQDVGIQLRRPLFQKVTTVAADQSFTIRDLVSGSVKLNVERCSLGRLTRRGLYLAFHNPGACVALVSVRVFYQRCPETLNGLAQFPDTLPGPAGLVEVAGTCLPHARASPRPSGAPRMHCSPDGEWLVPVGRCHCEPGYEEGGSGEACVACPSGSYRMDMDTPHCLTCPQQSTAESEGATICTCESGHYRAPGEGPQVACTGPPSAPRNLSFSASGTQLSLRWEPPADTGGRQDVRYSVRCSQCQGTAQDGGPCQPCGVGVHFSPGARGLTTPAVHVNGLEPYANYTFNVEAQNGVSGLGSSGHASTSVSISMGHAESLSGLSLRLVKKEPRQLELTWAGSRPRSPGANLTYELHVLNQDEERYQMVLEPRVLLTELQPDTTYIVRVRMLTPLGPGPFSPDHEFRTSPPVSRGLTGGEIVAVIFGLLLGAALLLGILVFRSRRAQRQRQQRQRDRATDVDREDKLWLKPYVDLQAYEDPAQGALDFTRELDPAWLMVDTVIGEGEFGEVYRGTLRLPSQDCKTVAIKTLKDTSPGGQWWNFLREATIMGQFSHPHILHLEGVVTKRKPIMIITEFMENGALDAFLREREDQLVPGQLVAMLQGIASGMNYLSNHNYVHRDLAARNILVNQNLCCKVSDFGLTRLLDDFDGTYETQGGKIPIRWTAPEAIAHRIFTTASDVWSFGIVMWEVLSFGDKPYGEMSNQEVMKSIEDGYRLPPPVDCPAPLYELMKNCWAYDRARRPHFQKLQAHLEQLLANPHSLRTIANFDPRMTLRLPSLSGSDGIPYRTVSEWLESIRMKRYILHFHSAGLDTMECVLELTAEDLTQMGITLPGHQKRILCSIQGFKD
Description: as §1

CLK2 = target: T15, CLK2 (Homo sapiens, UniProt P49760); conditions: 500 nM; relative to DMSO; read-out: Residual enzymatic activity
T15 construct: purchased Reaction Biology Corporation
Description: as §1

STK33 = target: T16, STK33 (Homo sapiens, UniProt Q9BYT3); conditions: 500 nM; relative to DMSO; read-out: Residual enzymatic activity
T16 construct: purchased Reaction Biology Corporation
Description: as §1

FER = target: T17, FER (Homo sapiens, UniProt P16591); conditions: 500 nM; relative to DMSO; read-out: Residual enzymatic activity
T17 construct: purchased Reaction Biology Corporation
Description: as §1

DYRK1B = target: T18, DYRK1B (Homo sapiens, UniProt Q9Y463); conditions: 500 nM; relative to DMSO; read-out: Residual enzymatic activity
T18 construct: purchased Reaction Biology Corporation
Description: as §1

HCK = target: T19, HCK (Homo sapiens, UniProt P08631); conditions: for remaining activity at 0.5 µM: 500 nM, relative to DMSO, read-out: Residual enzymatic activity
T19 construct: purchased Reaction Biology Corporation (assay service)
Description: as §1

[1] = 10-dose mode, threefold serial dilution from 10 μM

T9 sequence (P51451 whole entry): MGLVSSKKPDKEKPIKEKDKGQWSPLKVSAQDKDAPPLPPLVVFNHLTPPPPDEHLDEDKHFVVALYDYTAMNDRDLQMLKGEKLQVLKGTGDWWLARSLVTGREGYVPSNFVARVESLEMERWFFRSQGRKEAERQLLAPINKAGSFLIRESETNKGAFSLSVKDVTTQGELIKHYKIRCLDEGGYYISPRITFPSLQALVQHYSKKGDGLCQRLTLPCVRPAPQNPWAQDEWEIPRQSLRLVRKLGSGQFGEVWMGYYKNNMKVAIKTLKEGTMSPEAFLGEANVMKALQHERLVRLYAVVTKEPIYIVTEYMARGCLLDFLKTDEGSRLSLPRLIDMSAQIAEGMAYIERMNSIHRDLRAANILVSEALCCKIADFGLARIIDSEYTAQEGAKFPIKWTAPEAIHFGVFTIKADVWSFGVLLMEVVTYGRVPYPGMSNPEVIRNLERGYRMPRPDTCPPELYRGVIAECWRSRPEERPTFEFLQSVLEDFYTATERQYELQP
T19 sequence (P08631 whole entry): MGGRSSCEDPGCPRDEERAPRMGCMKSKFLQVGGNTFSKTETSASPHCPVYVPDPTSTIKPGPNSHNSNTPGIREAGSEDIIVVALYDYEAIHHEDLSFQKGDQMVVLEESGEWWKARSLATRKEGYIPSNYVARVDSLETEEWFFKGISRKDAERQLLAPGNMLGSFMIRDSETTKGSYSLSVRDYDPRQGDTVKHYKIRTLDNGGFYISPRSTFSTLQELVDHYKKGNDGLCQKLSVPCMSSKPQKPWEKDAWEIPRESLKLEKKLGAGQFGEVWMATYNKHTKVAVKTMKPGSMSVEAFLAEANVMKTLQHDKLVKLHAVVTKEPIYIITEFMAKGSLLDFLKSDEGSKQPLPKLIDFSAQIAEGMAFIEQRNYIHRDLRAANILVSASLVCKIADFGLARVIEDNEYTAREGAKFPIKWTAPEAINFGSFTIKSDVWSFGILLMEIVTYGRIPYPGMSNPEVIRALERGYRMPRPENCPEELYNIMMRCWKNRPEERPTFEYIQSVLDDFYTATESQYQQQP
T16 sequence (Q9BYT3 whole entry): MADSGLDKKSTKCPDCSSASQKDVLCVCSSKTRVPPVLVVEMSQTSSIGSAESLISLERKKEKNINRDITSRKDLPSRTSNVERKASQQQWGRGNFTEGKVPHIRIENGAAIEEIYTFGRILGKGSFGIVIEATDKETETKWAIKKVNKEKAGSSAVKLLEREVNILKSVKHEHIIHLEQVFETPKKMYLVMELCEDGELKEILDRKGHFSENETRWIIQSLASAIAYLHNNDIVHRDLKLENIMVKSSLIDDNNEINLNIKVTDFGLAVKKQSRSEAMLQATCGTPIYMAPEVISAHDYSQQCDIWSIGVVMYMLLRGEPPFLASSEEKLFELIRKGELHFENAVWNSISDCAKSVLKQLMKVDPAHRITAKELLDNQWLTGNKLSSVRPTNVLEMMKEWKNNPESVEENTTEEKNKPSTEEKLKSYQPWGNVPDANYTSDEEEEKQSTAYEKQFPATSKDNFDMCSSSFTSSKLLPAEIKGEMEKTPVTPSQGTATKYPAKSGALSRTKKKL
T3 sequence (P30530 26-894): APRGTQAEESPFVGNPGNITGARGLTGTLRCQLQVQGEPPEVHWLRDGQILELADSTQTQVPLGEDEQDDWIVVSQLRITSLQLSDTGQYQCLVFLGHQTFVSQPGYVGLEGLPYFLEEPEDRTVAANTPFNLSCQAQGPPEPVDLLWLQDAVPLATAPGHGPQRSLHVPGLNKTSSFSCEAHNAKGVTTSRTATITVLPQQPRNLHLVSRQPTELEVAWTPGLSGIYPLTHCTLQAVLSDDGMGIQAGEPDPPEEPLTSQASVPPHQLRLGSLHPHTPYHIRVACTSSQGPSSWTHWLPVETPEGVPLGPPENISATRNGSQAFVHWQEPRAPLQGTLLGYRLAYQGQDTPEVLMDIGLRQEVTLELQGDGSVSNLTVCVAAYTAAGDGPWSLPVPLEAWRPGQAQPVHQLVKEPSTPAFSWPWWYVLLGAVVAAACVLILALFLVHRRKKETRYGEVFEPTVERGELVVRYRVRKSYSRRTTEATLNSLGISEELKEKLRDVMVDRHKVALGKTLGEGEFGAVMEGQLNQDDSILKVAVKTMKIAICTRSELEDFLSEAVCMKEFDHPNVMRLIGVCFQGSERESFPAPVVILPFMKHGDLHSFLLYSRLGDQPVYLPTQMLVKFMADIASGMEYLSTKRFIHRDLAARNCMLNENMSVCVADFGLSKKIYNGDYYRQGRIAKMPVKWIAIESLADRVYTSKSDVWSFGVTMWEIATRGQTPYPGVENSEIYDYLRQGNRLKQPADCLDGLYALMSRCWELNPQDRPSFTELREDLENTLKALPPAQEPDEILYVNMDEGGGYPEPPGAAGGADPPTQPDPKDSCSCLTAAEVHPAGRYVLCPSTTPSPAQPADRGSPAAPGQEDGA
T7 sequence (P31751 whole entry): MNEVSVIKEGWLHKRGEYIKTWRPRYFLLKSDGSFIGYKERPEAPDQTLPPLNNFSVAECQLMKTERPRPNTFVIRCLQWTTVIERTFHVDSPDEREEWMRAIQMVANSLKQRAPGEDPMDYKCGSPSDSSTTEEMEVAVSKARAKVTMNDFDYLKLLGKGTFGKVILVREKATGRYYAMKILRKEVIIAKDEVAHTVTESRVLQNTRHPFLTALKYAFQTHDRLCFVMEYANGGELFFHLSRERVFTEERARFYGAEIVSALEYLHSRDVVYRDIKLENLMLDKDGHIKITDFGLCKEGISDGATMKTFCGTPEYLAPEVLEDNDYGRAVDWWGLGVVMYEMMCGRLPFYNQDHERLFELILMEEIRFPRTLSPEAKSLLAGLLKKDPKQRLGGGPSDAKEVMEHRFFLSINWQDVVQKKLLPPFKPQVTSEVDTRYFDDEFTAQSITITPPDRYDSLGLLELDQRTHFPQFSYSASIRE
T5 sequence (P22455 22-802): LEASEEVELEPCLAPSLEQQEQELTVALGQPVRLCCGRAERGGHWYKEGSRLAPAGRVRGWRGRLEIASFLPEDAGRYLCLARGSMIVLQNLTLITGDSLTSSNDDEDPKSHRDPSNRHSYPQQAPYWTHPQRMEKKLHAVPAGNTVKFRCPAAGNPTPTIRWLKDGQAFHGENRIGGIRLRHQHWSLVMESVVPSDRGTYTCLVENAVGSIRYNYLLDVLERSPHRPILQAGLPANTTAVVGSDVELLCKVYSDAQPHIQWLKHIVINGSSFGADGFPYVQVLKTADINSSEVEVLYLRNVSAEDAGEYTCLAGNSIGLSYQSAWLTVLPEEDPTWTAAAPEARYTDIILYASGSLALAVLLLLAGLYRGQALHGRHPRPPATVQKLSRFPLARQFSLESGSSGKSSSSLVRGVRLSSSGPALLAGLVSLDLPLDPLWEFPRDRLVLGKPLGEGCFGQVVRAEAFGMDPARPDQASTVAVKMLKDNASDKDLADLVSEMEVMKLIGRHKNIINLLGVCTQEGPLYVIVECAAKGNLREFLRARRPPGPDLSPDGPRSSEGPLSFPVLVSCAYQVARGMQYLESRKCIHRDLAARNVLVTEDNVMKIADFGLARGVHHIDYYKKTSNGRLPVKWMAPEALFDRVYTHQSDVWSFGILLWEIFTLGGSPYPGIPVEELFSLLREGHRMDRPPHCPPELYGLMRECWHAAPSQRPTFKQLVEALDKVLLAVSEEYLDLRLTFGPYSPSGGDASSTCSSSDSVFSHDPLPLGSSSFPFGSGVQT
T6 sequence (Q00536 whole entry): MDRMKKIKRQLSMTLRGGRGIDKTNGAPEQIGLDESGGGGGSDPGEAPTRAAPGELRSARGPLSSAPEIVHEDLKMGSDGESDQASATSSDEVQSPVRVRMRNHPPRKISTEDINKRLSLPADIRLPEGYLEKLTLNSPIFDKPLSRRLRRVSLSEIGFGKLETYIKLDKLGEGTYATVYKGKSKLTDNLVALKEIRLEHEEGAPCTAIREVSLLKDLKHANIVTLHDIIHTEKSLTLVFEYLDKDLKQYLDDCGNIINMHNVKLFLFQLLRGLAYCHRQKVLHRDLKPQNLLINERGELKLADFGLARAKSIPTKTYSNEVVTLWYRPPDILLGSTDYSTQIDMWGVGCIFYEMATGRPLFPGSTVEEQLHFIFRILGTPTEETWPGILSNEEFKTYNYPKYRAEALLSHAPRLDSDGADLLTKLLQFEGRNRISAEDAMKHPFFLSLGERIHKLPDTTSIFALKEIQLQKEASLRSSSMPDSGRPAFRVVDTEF
T6 sequence (Q8ND76 whole entry partner): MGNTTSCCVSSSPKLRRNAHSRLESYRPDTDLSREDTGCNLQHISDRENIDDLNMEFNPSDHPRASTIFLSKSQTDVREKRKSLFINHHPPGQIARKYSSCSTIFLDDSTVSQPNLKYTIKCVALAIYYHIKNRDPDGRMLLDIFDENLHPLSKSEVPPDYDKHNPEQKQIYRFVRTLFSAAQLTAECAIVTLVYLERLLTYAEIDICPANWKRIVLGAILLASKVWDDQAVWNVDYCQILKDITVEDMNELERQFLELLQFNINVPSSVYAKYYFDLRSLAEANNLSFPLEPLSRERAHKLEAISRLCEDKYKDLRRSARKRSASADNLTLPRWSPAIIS
T12 sequence (Q9NY57 whole entry): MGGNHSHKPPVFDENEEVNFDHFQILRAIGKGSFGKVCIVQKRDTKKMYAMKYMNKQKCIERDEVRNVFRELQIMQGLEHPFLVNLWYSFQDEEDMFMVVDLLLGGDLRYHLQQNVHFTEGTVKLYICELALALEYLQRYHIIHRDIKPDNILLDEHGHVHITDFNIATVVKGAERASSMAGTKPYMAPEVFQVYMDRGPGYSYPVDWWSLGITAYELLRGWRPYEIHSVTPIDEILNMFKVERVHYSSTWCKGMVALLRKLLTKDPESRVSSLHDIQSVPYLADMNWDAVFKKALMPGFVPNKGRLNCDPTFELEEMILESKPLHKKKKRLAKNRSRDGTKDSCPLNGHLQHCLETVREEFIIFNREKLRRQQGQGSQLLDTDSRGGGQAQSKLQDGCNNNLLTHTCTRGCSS

Structure (SMILES)	remaining activity at 0.5 µM (CAMK2a)	remaining activity at 0.5 µM (IR)	remaining activity at 0.5 µM (AXL)	remaining activity at 0.5 µM (CLK4)	remaining activity at 0.5 µM (CDK16/cyclin Y)	remaining activity at 0.5 µM (AKT2)	remaining activity at 0.5 µM (NLK)	remaining activity at 0.5 µM (BLK)	remaining activity at 0.5 µM (RON/MST1R)	remaining activity at 0.5 µM (SGK1)	remaining activity at 0.5 µM (STK32B/YANK2)	remaining activity at 0.5 µM (PAK6)	remaining activity at 0.5 µM (EPHA1)	remaining activity at 0.5 µM (CLK2)	remaining activity at 0.5 µM (STK33)	remaining activity at 0.5 µM (FER)	remaining activity at 0.5 µM (DYRK1B)	remaining activity at 0.5 µM (HCK)	further results
COc1cc(Nc2ncnc(Nc3cc4c(cn3)NC(=O)C(C)(C)O4)n2)cc(OC)c1OC [MT-SYK-03]	94.1%	94.4%	74.3%	88.7%	95.8%	106%	94.9%	19.8%	98.4%	108%	103%	96.5%	48.3%	94.5%	70.5%	78.8%	90.6%	26.3%	Residual enzymatic activity (FGFR4): 95.7%; IC50 (BLK; [1]): 9.6 nM; inhibition at 0.5 µM (BLK; read-out: Inhibition at 500 nM): > 90%; IC50 (EPHA1; [1]): 457 nM; IC50 (HCK; [1]): 53.7 nM
COc1cc(Nc2ncc(F)c(Nc3ccc4c(n3)NC(=O)C(C)(C)O4)n2)cc(OC)c1OC [R406, reference compound]	94.4%	77.5%	44.5%	52.1%	63.3%	110%	107%	16.7%	47.9%	109%	92%	81.2%	25.4%	81.6%	41.5%	22.9%	72.5%	15.4%	remaining activity at 0.5 µM (FGFR4; read-out: Residual enzymatic activity): 58%
